Patent US7968096B2, “Methods and compositions for treating toxoplasma” (priority 2005, dated 2011)

What was measured:
Type in all cases: cell-based, Toxoplasma gondii
T. gondii [1] = assay: Parasite replication rate under bradyzoite differentiation conditions (parasites per PV-cyst, IFA); conditions: 4 days, 100 nM GA
Procedure: FIG. 5 is a graph showing that geldanamycin A (GA) affects bradyzoite replication rate. PK strain (an avirulent derivative of the Me49 strain) and ΔUPRT strain (a strain with a stage-specific selectable marker) parasites were grown under bradyzoite differentiation conditions for 4 days in the presence of 100 nM of GA or DMSO. IFAs were carried out with rabbit anti-T. gondii Hsp90 serum. Fluorescent parasites were counted and the number of parasites per parasitophorous vacuole (PV)-cysts was graphed. One hundred PV-cysts were counted. Student t test was performed by Prism3™ program (Graphpad). *p 0.05, **p 0.01. The y-axis represents the number of parasites/PV-cysts.
(§1) RH UPRT knock-out parasites can be induced to differentiate into bradyzoites in low CO2, resulting in pyrimidine starvation. […] Bradyzoite induction under this method was assessed and followed by cyst wall detection using the Dolichos biflorus lectin (Boothroyd et al., (1997) Philos Trans R Soc Lond B Biol Sci 352, 1347-1354). […]
GA (InvivoGen, San Diego, Calif.) was dissolved in dimethyl sulfoxide (DMSO) at […]. […] For replication rate studies, the number of parasites per parasitophorous vacuole or cysts (PV-Cyst) was determined for at least 100 PV-Cyst per treatment (GA or DMSO) in replicate experiments. […] Analysis of intracellular localization of Hsp90 was assessed in the same way but using rabbit anti-TgHsp90 serum. […]

T. gondii bradyzoites = assay: In vitro transformation of encysted bradyzoites into tachyzoites (P21/SAG1 markers and Hsp90 localization by IFA)
Procedure: Released PK bradyzoites from brain cysts of infected mice were incubated with 100 nM GA or DMSO for 2 hours, washed, inoculated onto a confluent HFF monolayers, and grown under tachyzoite conditions. IFAs were performed at 4 and 24 hours post-inoculation. To identify mature bradyzoites, parasites were stained using a monoclonal anti-p21 antibody, and tachyzoites were stained using rabbit anti-SAG1. […] The y-axis depicts the number of parasites per/PV-cysts, and the x-axis depicts time in hours. […] The y-axis depicts the number of parasites per/PV-cysts, and the x-axis depicts time in hours. Parasites with cytoplasmic Hsp90 were treated with GA (Hsp90c-GA) or DMSO (Hsp90c-DMSO); parasites with cytoplasmic and nuclear Hsp90 were treated with GA (Hsp90c,n-GA) or DMSO (Hsp90n,c-DMSO). 100 PV-Cysts were counted at random in three independent experiments.
Cysts were isolated from brains of mice infected intraperitoneally 4 weeks before with PK or Me49 strain tachyzoites. Cysts were purified by isopycnic centrifugation on a percoll gradient and encysted bradyzoites were freed by trypsin digestion. In the case of GA experiments, free bradyzoites were incubated in culture media with GA […] or DMSO for 2 h, then parasites were pelleted and washed. One hundred thousand bradyzoites were inoculated onto 12 mm coverslips covered with a confluent monolayer of HFFs. Intracellular localization of Hsp90 was followed by IFA after 4 and 24 hours of infection using anti-Hsp90 serum (1:100). Monoclonal antibodies, specific to the tachyzoite surface protein SAG1 or to the bradyzoite specific protein P21 (mAb T84G10), were used to monitor stage conversion.
GA (InvivoGen, San Diego, Calif.) was dissolved in dimethyl sulfoxide (DMSO) at […]. The drug was diluted in normal culture media to the required concentrations prior to use. A range of concentrations from 1 nM to 5 μM were initially assayed to determine an effective concentration for subsequent experiments. DMSO was added in similar concentrations to control slides. For replication rate studies, the number of parasites per parasitophorous vacuole or cysts (PV-Cyst) was determined for at least 100 PV-Cyst per treatment (GA or DMSO) in replicate experiments. To measure the effect of GA on stage conversion, GA was added in bradyzoite induction experiments (as described above), slides were analyzed by IFA, and the number of P34 positive vacuoles was determined in both GA and DMSO treated cultures. Analysis of intracellular localization of Hsp90 was assessed in the same way but using rabbit anti-TgHsp90 serum. In the in vitro transformation of encysted bradyzoites into tachyzoites experiments, parasites were treated with GA (as described above) and then analyzed by IFA counting P21 and […] positive PV-Cysts in treated and control groups. For replication rate studies, the number of parasites per PV/cysts was determined for at least 100 PV-Cyst per treatment in replicate experiments.

T. gondii [2] = assay: Tachyzoite to bradyzoite conversion (P34 marker and Hsp90 subcellular localization by IFA); conditions: RH ΔUPRT strain, bradyzoite conditions 4 days, 100 nM GA
Procedure: FIG. 6 is two graphs showing that GA blocks tachyzoite to bradyzoite conversion. Parasites were grown under bradyzoite differentiation conditions for 4 days in the presence of 100 nM of GA or DMSO. FIG. 6A is RH UPRT knock-out parasites, and FIG. 6B is PK parasites. The y-axes depict the number of parasites/PV cysts. Cytoplasmic (c) and nuclear (n) Hsp90 localization was determined by IFA with rabbit anti-T. gondii Hsp90 serum. Parasites were also stained with the bradyzoite-specific marker p34 and scored as P34 positive (p34+) or negative (p34−). The number of P34−/Hsp90c; P34−/Hsp90c,n; P34+/Hsp90c; and P34+/Hsp90c,n per 100 PV-Cysts was counted at random, in three independent experiments.
as §1, with “starvation. (Bohne et al., (eds) (1997) Stage-specific expression of a selectable marker in T. gondii permits selective inhibition of either tachyzoites or bradyzoites Vol. 88. Mol Biochem Parasitol; Bohne et al., (1997) Mol Biochem Parasitol 88, 115-126).” for “starvation.”

[3] = 24 hours, Me49 bradyzoites incubated 2 hours with GA, washed, tachyzoite conditions
[4] = GA treated bradyzoites, time point not stated

COC1=C2C[C@@H](C)C[C@H](OC)[C@H](O)[C@@H](C)/C=C(\C)[C@H](OC(N)=O)[C@@H](OC)/C=C\C=C(/C)C(=O)NC(=CC1=O)C2=O [GA, geldanamycin A]
reduction of parasite growth compared to DMSO controls (T. gondii [1]; PK strain): ~3 fold | reduction of parasite growth compared to DMSO controls (T. gondii [1]; RH strain): ~2 fold | P21 positive and SAG1 negative parasites (T. gondii bradyzoites; 4 hours post-infection, all parasites (GA and DMSO), Me49 bradyzoites incubated 2 hours): more than 90% | parasites exhibiting Hsp90c (T. gondii bradyzoites; 24 hours post-infection): 100% | SAG1 positive parasites (T. gondii bradyzoites; [3]): less than 5% | parasites remaining P21 positive (T. gondii bradyzoites; [3]): more than 90% | bradyzoites showing Hsp90c staining (T. gondii bradyzoites; [4]): 80% | bradyzoites showing Hsp90n,c staining pattern (T. gondii bradyzoites; [4]): 20% | reduction of level of invasion compared with DMSO treated parasites (T. gondii bradyzoites; bradyzoites treated with GA): 40-66% | parasite vacuoles showing P34- and Hsp90c (tachyzoite phenotype) (T. gondii [2]): about 75%
